In patent US20090181972A1, “Novel Inhibitors of Cysteine Proteases, the Pharmaceutical Compositions Thereof and their Therapeutic Applications” (priority 2005, published 2009):
Where two headings read alike, the source gives them in different places.

Tests used:
USP8 = target: T1, USP8 (Homo sapiens, UniProt P40818); test: USP8 activity assay; format: biochemical; details: 400 nM Ub-AMC, 630 pM enzyme, pH8.8; pre-incubated 30 minutes at 25° C., 60 minutes at 37° C.; sigmoidal fit; read-out: USP 8
T1 construct: His tag (pFastBac-HT vector) (N); made in house; host or cells: Sf9 or High Five insect cells (baculovirus)
T1 sequence (P40818 1-1118): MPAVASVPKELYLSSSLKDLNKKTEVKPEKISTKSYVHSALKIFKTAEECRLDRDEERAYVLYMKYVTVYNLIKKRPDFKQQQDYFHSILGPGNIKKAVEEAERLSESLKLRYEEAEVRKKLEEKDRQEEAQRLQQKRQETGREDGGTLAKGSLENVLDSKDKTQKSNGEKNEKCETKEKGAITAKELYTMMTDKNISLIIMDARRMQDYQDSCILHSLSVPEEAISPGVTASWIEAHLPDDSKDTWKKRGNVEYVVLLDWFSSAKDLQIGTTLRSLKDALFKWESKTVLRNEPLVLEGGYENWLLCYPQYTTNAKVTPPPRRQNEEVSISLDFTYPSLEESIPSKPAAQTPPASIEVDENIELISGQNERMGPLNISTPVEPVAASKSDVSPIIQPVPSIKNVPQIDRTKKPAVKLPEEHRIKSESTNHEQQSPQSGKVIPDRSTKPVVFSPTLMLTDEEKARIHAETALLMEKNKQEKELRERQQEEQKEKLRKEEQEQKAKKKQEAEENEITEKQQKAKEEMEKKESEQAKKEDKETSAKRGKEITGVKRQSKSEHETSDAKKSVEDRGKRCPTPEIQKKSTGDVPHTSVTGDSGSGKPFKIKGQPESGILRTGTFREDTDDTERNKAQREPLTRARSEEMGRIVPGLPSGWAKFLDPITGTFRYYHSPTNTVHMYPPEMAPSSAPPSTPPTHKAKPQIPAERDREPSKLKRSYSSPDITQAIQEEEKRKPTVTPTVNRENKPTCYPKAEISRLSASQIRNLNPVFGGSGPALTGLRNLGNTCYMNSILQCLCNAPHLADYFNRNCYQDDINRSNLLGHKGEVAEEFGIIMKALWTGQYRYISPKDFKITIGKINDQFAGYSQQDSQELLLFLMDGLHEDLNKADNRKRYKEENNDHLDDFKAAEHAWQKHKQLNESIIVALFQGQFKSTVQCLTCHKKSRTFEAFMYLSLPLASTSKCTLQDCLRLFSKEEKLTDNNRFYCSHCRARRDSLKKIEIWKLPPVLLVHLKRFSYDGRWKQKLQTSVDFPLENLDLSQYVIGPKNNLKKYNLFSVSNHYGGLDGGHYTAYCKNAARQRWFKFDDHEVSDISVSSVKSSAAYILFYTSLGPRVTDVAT
From the text: The cDNA encoding USP8 was obtained by PCR amplification from placenta mRNA. USP8 cDNA was subcloned by PCR into a baculovirus expression vector (pFastBac-HT; Invitrogen). A cDNA encoding a mutated USP8 was generated by mutagenic PCR. The corresponding protein encodes a cysteine to alanine substitution at residue 786. The sequences were ascertained by sequencing of the entire open reading frame. Bacmids encoding […] were generated following DH10bac transposition. The corresponding bacmids were transfected. into insect cells (Sf9). Viruses were recovered from culture supernatant and amplified twice. Insect cells (Sf9 or High Five; Invitrogen) were infected for 72 hours. Total cell lysates were harvested and lyzed in lysis buffer (Tris HCl 50 mM pH 7.6; 0.75 % NP40; 500 mM NaCl; 10% glycerol; 1 mM DTT; 10 mM imidazole; Protease Inhibitor Cocktail; AEBSF 20 μg.ml^−1; Aprotinin 10 μg.ml^−1). Proteins were affinity purified on metal affinity resins (Talon Metal affinity resin; BD Biosciences). Bound materials were extensively washed in wash buffer (50 mM Sodium Phosphate pH 7.0; 300 mM NaCl; 10 mM imidazole; 0.5% Triton X-100; 10% glycerol) and eluted from the resin in 250 mM imidazole-containing wash buffer. Proteins were dialyzed in dialysis buffer (Tris HCl pH 7.6 20 mM; NaCl 200 mM; DTT 1 mM; EDTA 1 mM; 10% Glycerol). Proteins purifications were analyzed on 4-12% NuPAGE (Invitrogen).
USP8 was diluted in USP buffer (50 mM Tris HCl; 0.5 mM EDTA; 5 mM DTT; 0.01% Triton X-100; Bovine Serum Albumin 0.05 mg.ml^−1 pH8.8). Compounds stocks (100 mM) were stored at −20° C. in DMSO.
Reactions were performed as duplicates in Black LJL 96 well plates (HE microplates; Molecular Devices; 20 μl final reaction volume).The substrate concentration for USP8 was 400 nM Ub-AMC (Boston Biochem). The concentrations of the enzyme (USP8) in specificity assays was 630 pM. The concentrations were determined in order to perform specificity assays under initial velocities at fixed substrate concentration. Compounds were pre-incubated with enzymes for 30 minutes at 25° C. Reactions were initiated by addition of substrate to the plates containing the enzymes (+/− compounds) diluted in assay buffer. Reactions were incubated for 60 minutes at 37° C. Reactions were stopped by adding acetic acid (100 mM final). Readings were performed on a Pherastar Fluorescent Reader (BMG). λ Emission 380 nm; λ Excitation=460 nm. Data (mean values +/− standard deviation) were analyzed as % of control (no compound) and plotted as percentage versus the Log of the compound concentration using GraphPad (Prism). Data were fitted to a sigmoidal model (variable slope).

[1] = test system: HCT116 colon cancer cells; test: HCT116 cell viability and proliferation assay (MTS); format: cell-based; details: mean of three independent experiments, read-out: HCT116 GI50 D3
Procedure, shortened: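 HCT116 cells, 10^3 per well, treated 24 h after seeding with eight concentrations from 10 μM to 5 nM (0.5% final DMSO), in triplicate, for 72 h. Viability read by MTS reduction (2 h) at 492 nm. GI50 from sigmoidal variable-slope fit; mean of three independent experiments.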

[2] = Homo sapiens, HCT-116, 72 hours incubation

| IC50 (USP8) [nM] | GI50 ([1]; 72 hours incubation) [nM] | GI50 [1, 2] [nM] | Compound |
| --- | --- | --- | --- |
| 301 | 361 |  | 6-(7)-Chloro-1-methyl-2,3,4,10,10a-pentaaza-cyclopenta[b]fluoren-9-one [Example 3/A] |
|  |  | 2250 | CC(C)c1nnc2nc3c(nn12)C(=O)c1ccccc1-3 [Example 1l/A, 1-lsopropyl-2,3,4,10,10a-pentaaza-cyclopenta[b]fluoren-9-one] |
| 186 |  | 157 | CC(C)c1nnc2nc3c(nn12)-c1ccccc1C3=O [Example 1l/B, 3-Isopropyl-1,2,3a,4,10-pentaaza-cyclopenta[b]fluoren-9-one] |
| 162 |  | 28 | O=C1c2ccccc2-c2nn3c(C(F)(F)F)nnc3nc21 [Example 1m/B, 3-Trifluoromethyl-1,2,3a,4,10-pentaaza-cyclopenta[b]fluoren-9-one] |
| 347 |  | 1910 | COCCOCCOCc1nnc2nc3c(nn12)C(=O)c1ccccc1-3 [Example 1n/A, 1-[2-(2-Methoxy-ethoxy)-ethoxymethyl]-2,3,4,10,10a-pentaaza-cyclopenta[b]fluoren-9-one] |
| 46 |  | 818 | COc1cc2c(cc1OC)-c1nn3c(C)nnc3nc1C2=O [Example 5a/B, 6,7-Dimethoxy-3-methyl-1,2,3a,4,10-pentaaza-cyclopenta[b]fluoren-9-one] |
| 805 |  |  | CCc1nnc2nc3c(nn12)C(=O)c1cc(OC)c(OC)cc1-3 [Example 5b/A, 1-Ethyl-6,7-dimethoxy-2,3,4,10,10a-pentaaza-cyclopenta[b]fluoren-9-one] |
| 65 |  | 1180 | CCc1nnc2nc3c(nn12)-c1cc(OC)c(OC)cc1C3=O [Example 5b/B, 3-Ethyl-6,7-dimethoxy-1,2,3a,4,10-pentaaza-cyclopenta[b]fluoren-9-one] |
| 104 |  | 594 | CCCc1nnc2nc3c(nn12)-c1cc(OC)c(OC)cc1C3=O [Example 5c/B, 6,7-Dimethoxy-3-propyl-1,2,3a,4,10-pentaaza-cyclopenta[b]fluoren-9-one] |
| 360 |  | 257 | CCc1nnc2nc3c(nn12)-c1c(OC)ccc(OC)c1C3=O [Example 6/B, 3-Ethyl-5,8-dimethoxy-1,2,3a,4,10-pentaaza-cyclopenta[b]fluoren-9-one] |
